In US12170135B2, “Systems and methods for evaluating query perturbations” (Recursion Pharmaceuticals, Inc., priority 2019, dated 2024):
Entries after “also recorded” stand apart in the source; their conditions may differ.

Assays:
[1] = system: NF2 deficiency in primary human cells; test: Primary drug screens on NF2 loss-of-function model; assay type: cell-based; conditions: for rescue of NF2 loss-of-function phenotype: primary screen
Source text: To identify novel and effective treatments for NF2, a loss-of-function model of the disease in a primary human cells and screened for molecules that rescue the disease-specific phenotype. […] These figures illustrate results from a series of primary drug screens to identify drug candidates for NF2 from a library of approximately 2000 small molecules. Scores for control perturbations (largely clustered in region 1102), test perturbations (largely clustered in region 1104), and query perturbations (largely clustered in region 1106), are shown in the plots. A small number of hits were algorithmically selected based on their effects in the assay and used for further screening.

[2] = system: patients with NF2; conditions: Phase 2 study; cited from earlier work
[3] = system: Chk2 phosphorylation in primary fibroblasts derived from a patient with A-T; test: Western blot for phosphorylated Chk2 in primary fibroblasts from a patient with A-T; assay type: cell-based, human; conditions: H2O2
[4] = system: ATM deficiency in A549 cells; test: Cell Painting phenotypic screen on the A-T disease model (on-target/off-target scores); conditions: ATM disease signature, FIG. 9B
Source text: (§1) Hits were algorithmically selected based on effect and screened with a higher replicate count in a tertiary screen. […] The length of the wider green bars, such as bar 910, represents changes in individual features of increasing or decreasing magnitude that best represent the ATM disease signature. The impact of each drug on individual features is overlaid in a second, narrower red shaded bar, such as bar 911. […] The order of the features was randomized between individual plots, and individual feature labels are omitted. […] Western blots probed for ATM and phosphorylated Chk2. […] The lower plots represent quantification of phosphorylated Chk2 from the Western Blot, n=3. H=Healthy; *denotes p<0.05, two-sided paired ratio t-test.
(§2) Small molecule compounds were then tested on the A-T disease model using the screening methods described herein.

[5] = system: Chk2 phosphorylation in ATM knockdown A549 cells; test: Western blot for phosphorylated Chk2 in siRNA transfected A549 cells treated with H2O2; assay type: cell-based; conditions: H2O2 treatment
Protocol: Glucocorticoids are identified by the dashed red polygon 901. […] Western blots probed for ATM and phosphorylated Chk2.
To further validate these compounds, disease-specific studies were performed. In response to DNA damage, ATM stimulates phosphorylation of a host of target proteins, including the checkpoint kinase Chk2. As expected, it was observed that siRNA-mediated knockdown of ATM mRNA in the A549 model cell-line suppressed phosphorylation of Chk2 after H2O2 treatment. Moreover, most glucocorticoids tested restored Chk2 phosphorylation to nearly 50% of control levels, with betamethasone and dexamethasone showing the least rescue (FIG. 9C).

[6] = system: SMN protein; conditions: cell-based assays and patients; cited from earlier work
[7] = system: SMA patients; conditions: clinical trials; cited from earlier work
[8] = system: ATM deficiency in A549 cells
Source text: as §1, §2

In the case of CO[C@H]1C[C@@H]2CC[C@@H](C)[C@@](O)(O2)C(=O)C(=O)N2CCCC[C@H]2C(=O)O[C@H]([C@H](C)C[C@@H]2CC[C@@H](OCCO)[C@H](OC)C2)CC(=O)[C@H](C)/C=C(\C)[C@@H](O)[C@@H](OC)C(=O)[C@H](C)C[C@H](C)/C=C/C=C/C=C/1C [everolimus], the “rescue of NF2 loss-of-function phenotype” value [1] is given as “minimal efficacy” and the “clinical efficacy in NF2 / meningioma” value [2] is given as “failed to demonstrate efficacy”.
With CCN(CC)CCNC(=O)c1c(C)[nH]c(/C=C2\C(=O)Nc3ccc(F)cc32)c1C [Sunitinib, sunitinib] the “side-effect profile in NF2 screen” value [1] was “minimal increase in side-effect profile”.
With C[C@@H]1C[C@H]2[C@@H]3CCC4=CC(=O)C=C[C@]4(C)[C@@]3(Cl)[C@@H](O)C[C@]2(C)[C@@]1(O)C(=O)CCl [mometasone] the “rescue of Chk2 phosphorylation in primary patient-derived cells” value [3] was “dose-dependent rescue of Chk2 phosphorylation; also recorded: dose-dependent increase in Chk2 phosphorylation”, the “impact on the twenty most prominent phenotypic disease features” value [4] was “rescues a subset of features” and the “rescue of Chk2 phosphorylation associated with ATM deficiency” value [5] was “better rescue ATM deficiency”. The “rescue of Chk2 phosphorylation associated with ATM deficiency” value ([5]; listed as Mometasone) was “superior P-Chk2 rescue”.
For CNC(=O)c1cccc(-c2ccc3c(N4CCOC[C@@H]4C)nc(N4CCOC[C@@H]4C)nc3n2)c1 [AZD2014], the “side-effect profile in NF2 screen” value [1] was “elevated side-effect profile compared to another highly selective mTOR inhibitor” and the “rescue of NF2 loss-of-function phenotype” value [1] was “strong rescue”.
For CCCC(CCC)C(=O)O [Valproic acid], the SMN protein level [6] is given as “increases full length SMN protein” and the “clinical improvement in SMA” value [7] is given as “modest clinical improvement”.
With C[C@H]1C[C@H]2[C@@H]3CCC4=CC(=O)C=C[C@]4(C)[C@@]3(F)[C@@H](O)C[C@]2(C)[C@@]1(O)C(=O)CO [betamethasone] the “side effect profile (off-target score) in the screen” value [8] was “greater side effects”.
In the case of CS(=O)(=O)CCNCc1ccc(-c2ccc3ncnc(Nc4ccc(OCc5cccc(F)c5)c(Cl)c4)c3c2)o1 [lapatinib], the “clinical efficacy in NF2 / meningioma” value [2] is given as “antitumor activity in a subset of patients” and the “tolerability in patients with NF2” value [2] is given as “well tolerated”.
